Data set [1] has as its system ileal strips. Briefly: Gastrointestinal motility stimulation test (ileal strip, electric transmural stimulation). The conditions noted are these: Cavia porcellus; for activation at 10 µg/mL: read-out: Amplification Degree (Electric Transmural Stimulation), 10^-5 g/ml; for activation at 1 µg/mL: read-out: Amplification Degree (Electric Transmural Stimulation), 10^-6 g/ml. More on the design: species or system male Hartley guinea pigs. How it is done:
From male Hartley guinea pigs weighing 250-400 g, ileal strips, 2-3 cm long, were isolated. The ileal strip was suspended in a Tyrode's solution bath (30 ml) while supplying a mixture gas of 95% O2 -5% CO2 and maintained at 37±1° C. and using an isotonic transducer the longitudinal contractions of the strip were recorded. Supramaximal electric transmural stimulation of 1-millisecond duration was given at 10-second intervals. Each test compound was dissolved or suspended in physiological saline and added into the organ bath. The effect of each test compound on electric transmural stimulation was calculated from the amplitude of contractions (A) before administration and the amplitude of contractions (B) after administration using the following equation. [formula]

Data set [2] deals with male dd mice. Briefly: Acute toxicity test (minimum lethal dose, MLD). Type of data set: in vivo. The conditions noted are these: p.o., 7 days. On the procedure: Using male dd mice weighing 20±1 g in groups of 3, each test compound was orally administered (300 mg/kg, p.o.).
Data set [3] deals with histamine H2 -receptor. Briefly: antihistaminic (histamine H2 -receptor blocking) activity. Conditions: no method given.
Data set [4] relates to gastrointestinal tract. Conditions: Scand. J. Gastroenterol., 21 (Suppl. 121), 30 (1986); cited from earlier work.
In data set [5] the test system is histamine H2 -receptor. The conditions noted are these: known; cited from earlier work.

With `CNC(NCCNC(=O)c1ccc(CN(C)C)o1)=C(C#N)C#N` [Compound 10, 5-(Dimethylaminomethyl)-N-[2-(1-methylamino-2,2-dicyanovinylamino)ethyl]-2-furancarboxamide], in data set [1], the activation at 10 µg/mL came out at 36.4% and the activation at 1 µg/mL was 15.3%. The “Acute Toxicity (MLD)” value in data set [2] is recorded as > 300 mg/kg.
For `CNc1c(NCCNCc2ccc(CN3CCCCC3)o2)c(=O)c1=O` [Compound 17, 1-Methylamino-2-[[2-[(5-piperidinomethyl-2-furanyl)methylamino]ethyl]amino]cyclobutene-3,4-dione], in that order: 75%, 19.5% and > 300 mg/kg.
Turning to `N#CC(C#N)=C1NCCN1CCNCc1ccc(CN2CCSCC2)o1` [Compound 38], the activation at 1 µg/mL in data set [1] worked out at 34.5%. In addition, in data set [2], the “Acute Toxicity (MLD)” value is recorded as > 300 mg/kg.
For the compound `CNC(NCCCNCc1ccc(CN(C)C)o1)=C(C#N)C#N` [Compound 6, [[3-[(5-Dimethylaminomethyl-2-furanyl)methylamino]propylamino](methylamino)methylene]propanedinitrile], the activation at 10 µg/mL in data set [1] is 34%. Further, the “Acute Toxicity (MLD)” value in data set [2] is on record as > 300 mg/kg.
For the compound `N#CC(C#N)=C1NCCN1CCNCc1ccc(CN2CCCCCC2)o1` [Compound 29, [1-[2-[(5-Perhydroazepinylmethyl-2-furanyl)methylamino]ethyl]-2-imidazolidinylidene]propanedinitrile], in data set [1], the activation at 1 µg/mL was found to be 68%. Also, in data set [2], the “Acute Toxicity (MLD)” value is recorded as 200 mg/kg.
As to `CNC(=C[N+](=O)[O-])NCCSCc1ccc(CN(C)C)o1` [Ranitidine, reference compound], in data set [1], the activation at 10 µg/mL came out at 42.2% and the activation at 1 µg/mL is 35%. Besides, the antihistaminic activity result in data set [3] was “found”. Besides, the “Acute Toxicity (MLD)” value in data set [2] is given as > 300 mg/kg. Besides, the “activity to stimulate motility of the gastrointestinal tract” value in data set [4] is on record as “weak”. For the same compound, the “histamine H2 -receptor blocking activity” value in data set [5] is “having histamine H2 -receptor blocking activity”.
`CNC(=C[N+](=O)[O-])NCCNCc1ccc(CN(C)C)o1` [Compound 1, N-[2-[(5-Dimethylaminomethyl-2-furanyl)methylamino]ethyl]-N'-methyl-2-nitroethene-1,1-diamine]: the activation at 10 µg/mL in data set [1] came out at 30%. Also, the “Acute Toxicity (MLD)” value in data set [2] is reported as > 300 mg/kg.
Turning to `CNC(NCCNCc1ccc(CN2CCCCC2)o1)=C(C#N)C#N` [Compound 14, [[2-[(5-Piperidinomethyl-2-furanyl)methylamino]ethyl](methylamino)methylene]propanedinitrile], in data set [1], the activation at 10 µg/mL is 79.3% and the activation at 1 µg/mL was determined as 37.3%. Further, the “Acute Toxicity (MLD)” value in data set [2] was > 300 mg/kg.
Regarding `COC1CCCN(Cc2ccc(CNCCN3CCNC3=C(C#N)C#N)o2)C1` (centres unmarked) [Compound 34, [1-[2-[[5-(3-Methoxypiperidinomethyl)-2-furanyl]methylamino]ethyl]-2-imidazolidinylidene]propanedinitrile], in data set [1], the activation at 10 µg/mL worked out at 81.3% and the activation at 1 µg/mL was determined as 23%. For the same compound, the “Acute Toxicity (MLD)” value in data set [2] is > 300 mg/kg.
As for `N#CC(C#N)=C1NCCN1CCNCc1ccc(CN2CCCC2)o1` [Compound 27, [1-[2-[(5-Pyrrolidinylmethyl-2-furanyl)methylamino]ethyl]-2-imidazolidinylidene]propanedinitrile], the activation at 1 µg/mL in data set [1] worked out at 12%. The “Acute Toxicity (MLD)” value in data set [2] is > 300 mg/kg.
Take `CCN(CC)CCNC(=O)c1cc(Cl)c(N)cc1OC` [Metoclopramide, reference compound]: in data set [1], the activation at 10 µg/mL was 33.4% and the activation at 1 µg/mL was found to be 18%. Further, the “Acute Toxicity (MLD)” value in data set [2] is recorded as 200 mg/kg.
With `CN(CCN1CCNC1=C(C#N)C#N)Cc1ccc(CN2CCCCC2)o1` [Compound 45, [1-[2-[N-(Methyl)-N-[(5-piperidinomethyl-2-furanyl)methyl]amino]ethyl]-2-imidazolidinylidene]-propanedinitrile], in data set [1], the activation at 10 µg/mL was 72.1% and the activation at 1 µg/mL came to 43.8%. In addition, the “Acute Toxicity (MLD)” value in data set [2] is on record as > 300 mg/kg.
For `CNC(NCCNCc1ccc(CN2CCCC2)o1)=C(C#N)C#N` [Compound 13, [[2-[(5-Pyrrolidinylmethyl-2-furanyl)methylamino]ethyl](methylamino)methylene]propanedinitrile] the same measures were 70.8%, 34.5% and > 300 mg/kg.
On to `CCN(C)Cc1ccc(CNCCN2CCNC2=C(C#N)C#N)o1` [Compound 25, [1-[2-[(5-Ethylmethylaminomethyl-2-furanyl)methylamino]ethyl]-2-imidazolidinylidene]propanedinitrile], for which the activation at 1 µg/mL in data set [1] was found to be 63.5%. In data set [2], the “Acute Toxicity (MLD)” value is on record as > 300 mg/kg.
Turning to `CNC(NCCNCc1ccc(CN(C)C)o1)=C(C#N)C#N` [Compound 2, [[2-[(5-Dimethylaminomethyl-2-furanyl)methylamino]ethyl]amino(methylamino)methylene]propanedinitrile], in data set [1], the activation at 10 µg/mL was 80.5% and the activation at 1 µg/mL turned out to be 31%. The “Acute Toxicity (MLD)” value in data set [2] is reported as > 300 mg/kg.
For `CC1CCN(Cc2ccc(CNCCN3CCNC3=C(C#N)C#N)o2)CC1` [Compound 32, [1-[2-[[5-(4-Methylpiperidinomethyl)-2-furanyl]methylamino]ethyl]-2-imidazolidinylidene]propanedinitrile], the activation at 1 µg/mL in data set [1] turned out to be 52%. The “Acute Toxicity (MLD)” value in data set [2] is > 300 mg/kg.
Take `CNC(NCCNCc1ccc(CN(C(C)C)C(C)C)o1)=C(C#N)C#N` [Compound 12, [[2-[(5-Diisopropylaminomethyl-2-furanyl)methylamino]ethyl]amino(methylamino)methylene]propanedinitrile]: in data set [1], the activation at 10 µg/mL was found to be 55.8% and the activation at 1 µg/mL is 34.3%. Moreover, the “Acute Toxicity (MLD)” value in data set [2] was > 300 mg/kg.
In the case of `N#CC(C#N)=C1NCCN1CCNCc1ccc(CN2CCCCC2)o1` [Compound 28, [1-[2-[(5-Piperidinomethyl-2-furanyl)methylamino]ethyl]-2-imidazolidinylidene]propanedinitrile], the “Acute Toxicity (MLD)” value in data set [2] was found to be 100 mg/kg.
In the case of `CN(C)Cc1ccc(CNCCN2CCNC2=C(C#N)C#N)o1` [Compound 22, [1-[2-[(5-Dimethylaminomethyl-2-furanyl)methylamino]ethyl]-2-imidazolidinylidene]propanedinitrile], the activation at 1 µg/mL in data set [1] amounted to 56%. Also, the “Acute Toxicity (MLD)” value in data set [2] is reported as > 300 mg/kg.

(Values after US5075301A, “Furan derivatives useful for the treatment of gastro-intestinal disorders” (Kyowa Hakko Kogyo, Co., Ltd., priority 1989, dated 1991).)
